Values quoted from earlier work, collected in PMC5555364 (ACS chemical neuroscience, 2016).

Assays:
[1] = test system: single-point mutants of rNaV1.4; settings: all amino acid mutations of Figure 5 except tyrosine 1586
[2] = test system: NaV; settings: hyperpolarizing

Substance: Batrachotoxin [BTX]
- effect of mutations on BTX action on channel function [1]: abrogate the effect of BTX
- shift of voltage-dependence of channel activation [2]: −45 mV
